Source: US6103724A, “2-methoxyphenylpiperazine derivatives” (Richter Gedeon Vegyeszeti Gyar Rt., priority 1996, dated 2000)
Where a name gives a salt, the structure may show the parent alone.

Experiments:
α-1 receptor = experiment: Alpha-1 receptor binding (3H-prazosin)
Protocol: The non-specific binding was measured with 10 μM (±)-phentolamine.

APO-induced climbing = experiment: Inhibition of apomorphine (APO) induced climbing; format: in vivo, CD-1 (Charles River) male mice; conditions: for ED50: Mus musculus, po, mice, 1 mg/kg s.c. apomorphine 60 min after pretreatment
Protocol: CD-1 (Charles River) male mice weighing 22 to 24 g were pretreated with 1% Tween 80 solution of the compound to be tested. […] Six animals were used in each group. At 60 minutes after pretreatment, the animals were treated subcutaneously with 1 mg/kg of apomorphine (APO). From the 10th to 25th minute following APO treatment the animals were scored in each minute as follows: 0: all the four legs of the animal are on the ground; 1: the animal climbs on the grid by its both forelegs; 2: the animal climbs on the grid by all its four legs. The inhibitory effect was related to the APO control group, which could achieve 32 scores as a maximum.

[1] = molecular target: T1, 5-HT1A subtype of serotonin receptor (Rattus norvegicus, UniProt P19327); experiment: biochemical; format: binding; conditions: for IC50: 0.5 nM 3H-8-OH-DPAT; for D-2/5-HT1A ratio: ratio of receptor IC50 values
T1 sequence (P19327 1-422): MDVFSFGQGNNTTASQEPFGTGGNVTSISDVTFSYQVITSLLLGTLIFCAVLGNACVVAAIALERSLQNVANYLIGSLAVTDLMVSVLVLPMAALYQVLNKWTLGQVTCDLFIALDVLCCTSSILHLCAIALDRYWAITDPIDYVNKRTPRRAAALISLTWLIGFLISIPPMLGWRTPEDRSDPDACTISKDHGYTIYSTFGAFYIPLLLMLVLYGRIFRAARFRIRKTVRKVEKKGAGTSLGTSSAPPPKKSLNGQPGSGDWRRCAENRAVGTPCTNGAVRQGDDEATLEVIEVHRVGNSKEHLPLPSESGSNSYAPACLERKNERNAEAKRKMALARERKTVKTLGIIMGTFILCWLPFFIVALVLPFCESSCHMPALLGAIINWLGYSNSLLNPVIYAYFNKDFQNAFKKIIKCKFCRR
Protocol: Determination of the 5-HT1A subtype of serotonin receptor was carried out by a modification [M. D. Hall et al.: J. Neurochem. […] 0.5 nM ^3 H-8-OH-DPAT was used as ligand, where non-specific binding was determined by using 10 μM serotonin.

APO-induced sniffing = experiment: Inhibition of APO-induced sniffing stereotypy; format: in vivo, CD-1 (Charles River) male mice; conditions: for ED50: Mus musculus, po, mice, 1 mg/kg s.c. apomorphine 60 min after pretreatment; for Sniff./Climb. ratio: ratio of ED50 sniffing to ED50 climbing, p.o.
D-2 dopamine receptor = D-2 dopamine receptor (Homo sapiens, UniProt P14416); experiment: biochemical; format: binding; conditions: 0.5 nM 3H-spiperone
D-2 dopamine receptor, sequence (P14416 whole entry): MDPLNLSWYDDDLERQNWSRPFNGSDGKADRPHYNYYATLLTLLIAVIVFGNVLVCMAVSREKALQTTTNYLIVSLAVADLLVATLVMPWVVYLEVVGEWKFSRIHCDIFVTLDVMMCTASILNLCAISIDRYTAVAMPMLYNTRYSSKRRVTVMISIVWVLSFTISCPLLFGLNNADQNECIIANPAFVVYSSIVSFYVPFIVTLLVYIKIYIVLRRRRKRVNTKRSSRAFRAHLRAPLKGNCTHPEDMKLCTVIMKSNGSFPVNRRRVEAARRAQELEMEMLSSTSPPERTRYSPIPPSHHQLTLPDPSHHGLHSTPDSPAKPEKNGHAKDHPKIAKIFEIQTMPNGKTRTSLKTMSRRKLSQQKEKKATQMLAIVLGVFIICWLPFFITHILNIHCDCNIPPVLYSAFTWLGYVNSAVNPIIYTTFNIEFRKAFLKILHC

Row | SMILES | IC50 (α-1 receptor) | ED50 (APO-induced climbing) | IC50 [1] | ED50 (APO-induced sniffing) | Sniff./Climb. ratio (APO-induced sniffing) | IC50 (D-2 dopamine receptor) | ED50 values (climbing) compared with clozapine, in words (APO-induced climbing; oral, relative to clozapine) | oral activity as compared to clozapine (APO-induced climbing; oral, relative to clozapine) | D-2/5-HT1A ratio [1] | activity on 5-HT1A receptor subtypes, in words [1]
1 | COc1ccccc1N1CCN(CCCOc2ccc(-c3cn4ccccc4n3)cc2)CC1 [Compound 4510067, 1-(2-Methoxyphenyl)-4-{3-[4-(2-imidazo[1,2-a]pyridinyl)phenoxy]propyl}piperazine] | 0.057 µM | 7.2 mg/kg | 0.202 µM | 16.2 mg/kg | 2.3 | 0.017 µM | – | – | – | –
2 | COc1ccccc1N1CCN(CCOc2ccc(-c3cc4ccccn4c3)cc2)CC1.Cl.Cl [Compound 4510407, 1-(2-Methoxyphenyl)-4-{2-[4-(2-indolizinyl)phenoxy]ethyl}piperazine dihydrochloride] | 0.542 µM | > 30 mg/kg | 0.802 µM | – | – | 0.258 µM | – | – | – | –
3 | COc1ccccc1N1CCN(CCOc2ccc(-c3cn4ccccc4n3)cc2)CC1 [Compound 4510408, 1-(2-Methoxyphenyl)-4-{2-[4-(2-imidazo[1,2-a]pyridinyl)phenoxy]ethyl}piperazine] | 0.036 µM | 2.4 mg/kg | 0.07 µM | ~10 mg/kg | 4.1 | 0.056 µM | lower than or equal to that of clozapine | – | – | –
4 | COc1ccccc1N1CCN(CCOc2ccc(-c3cn4cccnc4n3)cc2)CC1 [Compound 4510411, 1-(2-Methoxyphenyl)-4-{2-[4-(2-imidazo[1,2-a]pyrimidinyl)phenoxy]ethyl}piperazine] | 0.063 µM | 3.4 mg/kg | 0.01 µM | > 30 mg/kg | > 8.8 | 0.133 µM | lower than or equal to that of clozapine | – | – | –
5 | COc1ccccc1N1CCN(CCCOc2ccc(-c3cc4ccccn4c3)cc2)CC1.Cl.Cl [Compound 4510423, 1-(2-Methoxyphenyl)-4-{3-[4-[2-indolizinyl)phenoxy]propyl}piperazine dihydrochloride] | 0.359 µM | 4.1 mg/kg | 1 µM | > 10 mg/kg | > 2.4 | 0.077 µM | – | – | – | –
6 | COc1ccccc1N1CCN(CCCOc2ccc(-c3cn4cccnc4n3)cc2)CC1 [Compound 4510424, 1-(2-Methoxyphenyl)-4-{3-[4-(2-imidazo[1,2-a]pyrimidinyl)phenoxy]propyl}piperazine] | 0.03 µM | 8.9 mg/kg | 0.066 µM | > 30 mg/kg | 3.4 | 0.034 µM | – | – | – | –
7 | COc1ccccc1N1CCN(CCOc2ccc(-c3cn4ccsc4n3)cc2)CC1.Cl.Cl.Cl [Compound 4510470, 1-(2-Methoxyphenyl)-4-{2-[4-[6-imidazo[2,1-b]thiazolyl]phenoxy]ethyl}piperazine trihydrochloride] | 0.101 µM | 0.8 mg/kg | 0.038 µM | 4.5 mg/kg | 5.6 | 0.073 µM | – | ten-fold | 1.9 | –
8 | COc1ccccc1N1CCN(CCOc2ccc(-c3cn4c(n3)SCC4)cc2)CC1 [Compound 4510471, 1-(2-Methoxyphenyl)-4-{2-[4-[6-(2,3-dihydroimidazo[2,1-b]thiazol)-yl]phenoxy]ethyl}piperazine trihydrochloride] | 0.075 µM | 6.3 mg/kg | 0.029 µM | > 30 mg/kg | 4.8 | 0.117 µM | – | – | – | –
9 | COc1ccccc1N1CCN(CCCOc2ccc(-c3cn4ccsc4n3)cc2)CC1 [Compound 4510472, 1-(2-Methoxyphenyl)-4-{3-[4-[6-imidazo[2,1-b]thiazolyl)phenoxy]propyl}piperazine] | 0.056 µM | 3.4 mg/kg | 0.096 µM | ~10 mg/kg | 2.9 | 0.023 µM | lower than or equal to that of clozapine | – | – | –
10 | COc1ccccc1N1CCN(CCCOc2ccc(-c3cn4c(n3)SCC4)cc2)CC1 [Compound 4510473, 1-(2-Methoxyphenyl)-4-{3-[4-[6-(2,3-dihydroimidazo[2,1-b]thiazol)yl]phenoxy]jpropyl}piperazine] | 0.048 µM | 15.3 mg/kg | 0.122 µM | > 30 mg/kg | > 2.0 | 0.029 µM | – | – | – | –
11 | COc1ccccc1N1CCN(CCCCOc2ccc(-c3cc4ccccn4c3)cc2)CC1 [Compound 4510613, 1-(2-Methoxyphenyl)-4-{4-[4-(2-indolizinyl)phenoxy]butyl}piperazine] | 0.842 µM | 14.8 mg/kg | 0.243 µM | > 30 mg/kg | > 2.0 | 0.099 µM | – | – | – | –
12 | COc1ccccc1N1CCN(CCCCOc2ccc(-c3cn4cccnc4n3)cc2)CC1 [Compound 4510645, 1-(2-Methoxyphenyl)-4-{4-[4-(2-imidazo[1,2-a]pyrimidinyl)phenoxy]butyl}piperazine] | 0.022 µM | 20.5 mg/kg | 0.012 µM | > 30 mg/kg | > 1.5 | 0.055 µM | – | – | – | –
13 | COc1ccccc1N1CCN(CCCCOc2ccc(-c3cn4ccccc4n3)cc2)CC1 [Compound 4510915, 1-(2-Methoxyphenyl)-4-{4-[4-(2-imidazo[1,2-a]pyridinyl)phenoxy]butyl}piperazine] | 0.034 µM | 10.7 mg/kg | 0.021 µM | – | – | 0.069 µM | – | – | – | –
14 | COc1ccccc1N1CCN(CCCCOc2ccc(-c3cn4ccsc4n3)cc2)CC1.Cl.Cl.Cl [Compound 4510916, 1-(2-Methoxyphenyl)4-{4-[4-[6-imidazo[2,1-b]thiazolyl]phenoxy]butyl}piperazine trihydrochloride] | 0.028 µM | 6.1 mg/kg | 0.008 µM | ~30 mg/kg | > 4.9 | 0.055 µM | – | – | 6.9 | especially strong activity
15 | COc1ccccc1N1CCN(CCCCOc2ccc(-c3cn4c(n3)SCC4)cc2)CC1 [Compound 4510991, 1-(2-Methoxyphenyl)-4-{4-[4-[6-(2,3-dihydroimidazo[2,1-b]thiazol)-yl]phenoxy]butyl}piperazine] | 0.016 µM | ~30 mg/kg | 0.009 µM | > 30 mg/kg | > 1.0 | 0.056 µM | – | – | – | especially strong activity
